From ChEMBL document CHEMBL4196157, “Inhibition of Herpes Simplex Virus-1 Entry into Human Cells by Nonsaccharide Glycosaminoglycan Mimetics” (ACS Med Chem Lett, 2018)
The source made the active and inactive calls. No cut-off for these calls is given here.

Legend:
[1] = (§1) Binding affinity to recombinant HSV1 glycoprotein D (21 to 339 residues) assessed as change in intrinsic tryptophan fluorescence by spectrofluorimetric method; design: species or system Human alphaherpesvirus 1
Human alphaherpesvirus 1 [2] = test: as §1
[3] = Binding affinity to HSV1 glycoprotein D; design: species or system Human alphaherpesvirus 1
Human alphaherpesvirus 1 [4] = test: Antiviral activity against Herpes simplex virus 1 KOS infected in African green monkey Vero cells assessed as inhibition of plaque formation at 5 ug treated 1 hr prior to viral infection followed by compound washout and subsequent compound addition measured after 72 hrs by Giemsa staining based assay; type: functional, organism-based

Kd [1] [µM] | %max (Human alphaherpesvirus 1 [2]) [%] | Kd [3] [µM] | SMILES | inhibition (Human alphaherpesvirus 1 [4])
0.5 | -85 |  | CO[C@H]1O[C@H](COS(=O)(=O)O)[C@@H](O[C@@H]2O[C@@H](C(=O)O)[C@@H](O[C@H]3O[C@H](COS(=O)(=O)O)[C@@H](O[C@@H]4O[C@H](C(=O)O)[C@@H](O[C@H]5O[C@H](COS(=O)(=O)O)[C@@H](O)[C@H](O)[C@H]5NS(=O)(=O)O)[C@H](O)[C@H]4O)[C@H](OS(=O)(=O)O)[C@H]3NS(=O)(=O)O)[C@H](O)[C@H]2OS(=O)(=O)O)[C@H](O)[C@H]1NS(=O)(=O)O [FONDAPARINUX SODIUM] | 
0.112 | 328 |  | O=C(OC1[C@@H](OC(=O)c2cc(OS(=O)(=O)O)cc(OS(=O)(=O)O)c2)[C@@H](OC(=O)c2ccc(OS(=O)(=O)O)cc2OS(=O)(=O)O)C(OC(=O)c2cc(OS(=O)(=O)O)cc(OS(=O)(=O)O)c2)[C@H](OC(=O)c2cc(OS(=O)(=O)O)cc(OS(=O)(=O)O)c2)[C@H]1OC(=O)c1cc(OS(=O)(=O)O)cc(OS(=O)(=O)O)c1)c1cc(OS(=O)(=O)O)cc(OS(=O)(=O)O)c1 (single isomer, unassigned) | 
 |  | 18 | O=C(O)C1=C[C@H](O)[C@@H](OS(=O)(=O)O)[C@H](O[C@H]2[C@H](O)[C@@H](NS(=O)(=O)O)[C@@H](O[C@H]3[C@H](O)[C@@H](OS(=O)(=O)O)[C@H](O[C@H]4[C@H](O)[C@@H](NS(=O)(=O)O)[C@@H](O[C@H]5[C@H](O)[C@@H](OS(=O)(=O)O)[C@H](O[C@H]6[C@H](OS(=O)(=O)O)[C@@H](NS(=O)(=O)O)[C@@H](O[C@H]7[C@H](O)[C@@H](OS(=O)(=O)O)[C@H](O[C@H]8[C@H](O)[C@@H](NS(=O)(=O)O)[C@@H](O)O[C@@H]8COS(=O)(=O)O)O[C@H]7C(=O)O)O[C@@H]6COS(=O)(=O)O)O[C@H]5C(=O)O)O[C@@H]4COS(=O)(=O)O)O[C@H]3C(=O)O)O[C@@H]2COS(=O)(=O)O)O1 | 
2.22 | -112 |  | CCOC(=O)c1c(C)oc2cc(OCc3cccc(OS(=O)(=O)O)c3)c(OCc3oc4cc(OC)c(OS(=O)(=O)O)cc4c3C(=O)OCC)cc12 | 
0.78 | -157 |  | CCOC(=O)c1c(C)oc2cc(OCc3ccccc3)c(OCCCOc3cc(OS(=O)(=O)O)cc4oc(-c5ccc(OS(=O)(=O)O)cc5)cc(=O)c34)cc12 | 
0.008 | 53 |  | O=C(O[C@@H]1[C@@H](OC(=O)c2cc(OS(=O)(=O)O)cc(OS(=O)(=O)O)c2)[C@H](OC(=O)c2cc(OS(=O)(=O)O)cc(OS(=O)(=O)O)c2)[C@@H](OC(=O)c2ccc(OS(=O)(=O)O)cc2OS(=O)(=O)O)[C@H](OC(=O)c2cc(OS(=O)(=O)O)cc(OS(=O)(=O)O)c2)[C@H]1OC(=O)c1cc(OS(=O)(=O)O)cc(OS(=O)(=O)O)c1)c1cc(OS(=O)(=O)O)cc(OS(=O)(=O)O)c1 | 
 |  |  | Nc1nc2c(ncn2COCCO)c(=O)[nH]1 | Active
0.026 | 87 |  | CC1OC[C@H]2O[C@H](OC(=O)c3cc(OS(=O)(=O)O)cc(OS(=O)(=O)O)c3)[C@H](OC(=O)c3cc(OS(=O)(=O)O)cc(OS(=O)(=O)O)c3)[C@@H](OC(=O)c3cc(OS(=O)(=O)O)cc(OS(=O)(=O)O)c3)[C@@H]2O1 (stereo partly drawn) | 
0.022 | -82 |  | Cc1cc(Oc2cc3c(=O)c(OS(=O)(=O)O)c(-c4ccc(OS(=O)(=O)O)c(OS(=O)(=O)O)c4)oc3cc2OS(=O)(=O)O)c(C)cc1COc1cc(OS(=O)(=O)O)cc2oc(-c3ccc(OS(=O)(=O)O)c(OS(=O)(=O)O)c3)c(OS(=O)(=O)O)c(=O)c12 | 
0.15 | -52 |  | O=S(=O)(O)OC[C@H]1O[C@@](COS(=O)(=O)O)(O[C@@H]2O[C@H](COS(=O)(=O)O)[C@@H](OS(=O)(=O)O)[C@H](OS(=O)(=O)O)[C@H]2OS(=O)(=O)O)[C@@H](OS(=O)(=O)O)[C@@H]1OS(=O)(=O)O | 
